According to US12077503B2, “Substituted cyclic amides and their use as herbicides” (FMC CORPORATION, priority 2015, dated 2024):
Where two headings read alike, the source gives them in different places.

Columns and labels:
Type in all cases: in vivo
Kochia (Kochia scoparia) [1] = assay: Test A preemergence; settings: Bassia scoparia, pre-emergence, 240 h, preemergence; for pest or weed control at 125 g/ha: 125 g ai/ha; for pest or weed control at 500 g/ha: 500 g ai/ha
Procedure, shortened: (§1)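 Greenhouse, ~10 d after spray; visual injury vs untreated controls, 0 = no effect, 100 = complete control. Preemergence: directed soil spray over planted seeds. Postemergence: plants 2–10 cm, 1–2 leaf stage. Loam/sand blend. Compound in non-phytotoxic solvent with surfactant.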

[2] = tested on: Galium (catchweed bedstraw, Galium aparine); assay: Test A postemergence; settings: Galium, post-emergence, 240 h, postemergence; for pest or weed control at 125 g/ha: 125 g ai/ha; for pest or weed control at 500 g/ha: 500 g ai/ha, 0 to 100 scale, 0 is no effect, 100 is complete control, read-out: Galium plant response rating
Procedure, shortened: as §1

Kochia (Kochia scoparia) [3] = assay: Test A postemergence; settings: Bassia scoparia, post-emergence, 240 h, postemergence; for pest or weed control at 125 g/ha: 125 g ai/ha; for pest or weed control at 500 g/ha: 500 g ai/ha, 0 to 100 scale, 0 is no effect, 100 is complete control, read-out: Kochia plant response rating
Procedure, shortened: as §1

[4] = tested on: barnyardgrass (Echinochloa crus-galli); assay: Test A postemergence; settings: Echinochloa crus-galli, post-emergence, 240 h, postemergence; for pest or weed control at 125 g/ha: 125 g ai/ha; for pest or weed control at 500 g/ha: 500 g ai/ha, 0 to 100 scale, 0 is no effect, 100 is complete control, read-out: Barnyardgrass plant response rating
Procedure, shortened: as §1

[5] = tested on: blackgrass (Alopecurus myosuroides); assay: Test A postemergence; settings: Alopecurus myosuroides, post-emergence, 240 h, postemergence; for pest or weed control at 125 g/ha: 125 g ai/ha; for pest or weed control at 500 g/ha: 500 g ai/ha, 0 to 100 scale, 0 is no effect, 100 is complete control, read-out: Blackgrass plant response rating
Procedure, shortened: as §1

corn (Zea mays) = assay: Test A postemergence; settings: Zea mays, post-emergence, 240 h, postemergence; for plant injury at 125 g/ha: visual injury vs untreated controls after approx. 10 d, 0 = no effect, 100 = complete control, read-out: Corn plant response rating (0 to 100 scale); for plant injury at 500 g/ha: 500 g ai/ha, 0 to 100 scale, 0 is no effect, 100 is complete control, read-out: Corn plant response rating
Procedure, shortened: as §1

[6] = tested on: giant foxtail (Setaria faberii); assay: Test A postemergence; settings: Setaria faberi, post-emergence, 240 h, postemergence; for pest or weed control at 125 g/ha: 125 g ai/ha; for pest or weed control at 500 g/ha: 500 g ai/ha, 0 to 100 scale, 0 is no effect, 100 is complete control, read-out: Foxtail, Giant plant response rating
Procedure, shortened: as §1

[7] = tested on: pigweed (Amaranthus retroflexus); assay: Test A postemergence; settings: Amaranthus retroflexus, post-emergence, 240 h, postemergence; for pest or weed control at 125 g/ha: 125 g ai/ha; for pest or weed control at 500 g/ha: 500 g ai/ha, 0 to 100 scale, 0 is no effect, 100 is complete control, read-out: Pigweed plant response rating
Procedure, shortened: as §1

[8] = tested on: ragweed (common ragweed, Ambrosia elatior); assay: Test A postemergence; settings: Ambrosia artemisiifolia, post-emergence, 240 h, postemergence; for pest or weed control at 125 g/ha: 125 g ai/ha; for pest or weed control at 500 g/ha: 500 g ai/ha, 0 to 100 scale, 0 is no effect, 100 is complete control, read-out: Ragweed plant response rating
Procedure, shortened: as §1

[9] = tested on: ryegrass, Italian (Italian ryegrass, Lolium multiflorum); assay: Test A postemergence; settings: Lolium multiflorum, post-emergence, 240 h, postemergence; for pest or weed control at 125 g/ha: 125 g ai/ha; for pest or weed control at 500 g/ha: 500 g ai/ha, 0 to 100 scale, 0 is no effect, 100 is complete control, read-out: Ryegrass, Italian plant response rating
Procedure, shortened: as §1

[10] = tested on: wheat (Triticum aestivum); assay: Test A postemergence; settings: Triticum aestivum, post-emergence, 240 h, postemergence; for plant injury at 125 g/ha: 125 g ai/ha; for plant injury at 500 g/ha: 500 g ai/ha, 0 to 100 scale, 0 is no effect, 100 is complete control, read-out: Wheat plant response rating
Procedure, shortened: as §1

[11] = tested on: barnyardgrass (Echinochloa crus-galli); assay: Test B flooded paddy test; settings: Echinochloa crus-galli, 250 g ai/ha, Flood, read-out: Barnyardgrass plant response rating
Procedure, shortened: (§2)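 Flooding to 3 cm over soil accompanied treatment, which consisted of adding compound to the standing water around 2-leaf plants; depth was then maintained. Visual assessment versus controls followed at 13 to 15 d (scale 0–100, 0 meaning no effect).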

[12] = tested on: ducksalad (Heteranthera limosa); assay: Test B flooded paddy test; settings: Heteranthera limosa, 250 g ai/ha, Flood, read-out: Ducksalad plant response rating
Procedure, shortened: as §2

rice (Oryra sativa) = assay: Test B flooded paddy test; settings: Oryza sativa, 250 g ai/ha, Flood, read-out: Rice plant response rating
Procedure, shortened: as §2

[13] = tested on: sedge, umbrella (small-flower umbrella sedge, Cyperus difformis); assay: Test B flooded paddy test; settings: Cyperus difformis, 250 g ai/ha, Flood, read-out: Sedge, Umbrella plant response rating
Procedure, shortened: as §2

[14] = visual injury rating, 0 to 100 scale where 0 is no effect and 100 is complete control, approximately 10 d, read-out: Kochia plant response rating
[15] = 0 to 100 scale where 0 is no effect and 100 is complete control, read-out: Kochia plant response rating
[16] = visual injury vs untreated controls after approx. 10 d, 0 = no effect, 100 = complete control, read-out: Galium plant response rating (0 to 100 scale)
[17] = visual injury vs untreated controls after approx. 10 d, 0 = no effect, 100 = complete control, read-out: Kochia plant response rating (0 to 100 scale)
[18] = visual injury vs untreated controls after approx. 10 d, 0 = no effect, 100 = complete control, read-out: Barnyardgrass plant response rating (0 to 100 scale)
[19] = visual injury vs untreated controls after approx. 10 d, 0 = no effect, 100 = complete control, read-out: Blackgrass plant response rating (0 to 100 scale)
[20] = visual injury vs untreated controls after approx. 10 d, 0 = no effect, 100 = complete control, read-out: Foxtail, Giant plant response rating (0 to 100 scale)
[21] = visual injury vs untreated controls after approx. 10 d, 0 = no effect, 100 = complete control, read-out: Pigweed plant response rating (0 to 100 scale)
[22] = visual injury vs untreated controls after approx. 10 d, 0 = no effect, 100 = complete control, read-out: Ragweed plant response rating (0 to 100 scale)
[23] = visual injury vs untreated controls after approx. 10 d, 0 = no effect, 100 = complete control, read-out: Ryegrass, Italian plant response rating (0 to 100 scale)
[24] = visual injury vs untreated controls after approx. 10 d, 0 = no effect, 100 = complete control, read-out: Wheat plant response rating (0 to 100 scale)
[25] = 0 to 100 scale where 0 is no effect and 100 is complete control
[26] = scale of 0 to 100 where 0 is no effect and 100 is complete control

SMILES	pest or weed control at 125 g/ha (Kochia (Kochia scoparia) [1]; [14]) [%]	pest or weed control at 500 g/ha (Kochia (Kochia scoparia) [1]; [15]) [%]	pest or weed control at 125 g/ha [2, 16] [%]	pest or weed control at 500 g/ha [2] [%]	pest or weed control at 125 g/ha (Kochia (Kochia scoparia) [3]; [17]) [%]	pest or weed control at 500 g/ha (Kochia (Kochia scoparia) [3]) [%]	pest or weed control at 125 g/ha [4, 18] [%]	pest or weed control at 500 g/ha [4] [%]	pest or weed control at 125 g/ha [5, 19] [%]	pest or weed control at 500 g/ha [5] [%]	plant injury at 125 g/ha (corn (Zea mays); 125 g ai/ha) [%]	plant injury at 500 g/ha (corn (Zea mays)) [%]	pest or weed control at 125 g/ha [6, 20] [%]	pest or weed control at 500 g/ha [6] [%]	pest or weed control at 125 g/ha [7, 21] [%]	pest or weed control at 500 g/ha [7] [%]	pest or weed control at 125 g/ha [8, 22] [%]	pest or weed control at 500 g/ha [8] [%]	pest or weed control at 125 g/ha [9, 23] [%]	pest or weed control at 500 g/ha [9] [%]	other results
CSc1ccccc1NC(=O)[C@H]1C(=O)N(C)C[C@@H]1c1ccc(C#N)cc1 [Compound 1230]	70	90	20	60	30	70	30	70	0	0	0	0	60	80	30	60	0	0	0	0	plant injury at 125 g/ha [10, 24]: 0%; plant injury at 500 g/ha [10]: 0%; pest or weed control at 250 g/ha [11, 25]: 25%; pest or weed control at 250 g/ha [12, 25]: 70%; pest or weed control at 250 g/ha (rice (Oryra sativa); [25]): 0%; pest or weed control at 250 g/ha [13, 25]: 0%
CN1CC[C@H](c2ccc(C(F)(F)F)cc2)[C@@H](C(=O)Nc2ccc(F)c(F)c2F)C1=O [Compound 1226]	60	70	80	80	60	60	100	100	20	30	30	70	80	80	20	60	0	50	0	0	plant injury at 125 g/ha [10, 24]: 0%; plant injury at 500 g/ha [10]: 0%; pest or weed control at 250 g/ha [11, 25]: 60%; pest or weed control at 250 g/ha [12, 25]: 100%; pest or weed control at 250 g/ha (rice (Oryra sativa); [25]): 20%; pest or weed control at 250 g/ha [13, 25]: 0%
O=C1NC[C@H](c2ccc3c(c2)OCO3)[C@H]1C(=O)Nc1cccc(F)c1F [Compound 731]	–	–	–	–	–	–	–	–	–	–	–	–	–	–	–	–	–	–	–	–	pest or weed control at 125 g/ha (Kochia (Kochia scoparia) [1]; visual rating after approx. 10 d, 0 to 100 scale where 0 is no effect and 100 is complete control, read-out: Plant response rating, Kochia): 0%; pest or weed control at 500 g/ha (Kochia (Kochia scoparia) [1]; 0 to 100 scale, 0 = no effect, 100 = complete control, read-out: Plant response rating, Kochia): 60%; pest or weed control at 125 g/ha ([2]; visual injury after approximately 10 d, 0 to 100 scale (0 no effect, 100 complete control), read-out: Plant response rating, Galium): 20%; pest or weed control at 125 g/ha (Kochia (Kochia scoparia) [3]; visual injury after approximately 10 d, 0 to 100 scale (0 no effect, 100 complete control), read-out: Plant response rating, Kochia): 0%; pest or weed control at 125 g/ha ([4]; visual injury after approximately 10 d, 0 to 100 scale (0 no effect, 100 complete control), read-out: Plant response rating, Barnyardgrass): 70%; pest or weed control at 125 g/ha ([5]; visual injury after approximately 10 d, 0 to 100 scale (0 no effect, 100 complete control), read-out: Plant response rating, Blackgrass): 0%; Corn plant response rating (crop injury, 0 = no effect, 100 = complete kill) at 125 g/ha (corn (Zea mays); 125 g ai/ha, visual injury after approximately 10 d, 0 to 100 scale (0 no effect, 100 complete control)): 0%; pest or weed control at 125 g/ha ([6]; visual injury after approximately 10 d, 0 to 100 scale (0 no effect, 100 complete control), read-out: Plant response rating, Foxtail, Giant): 50%; pest or weed control at 125 g/ha ([7]; visual injury after approximately 10 d, 0 to 100 scale (0 no effect, 100 complete control), read-out: Plant response rating, Pigweed): 0%; pest or weed control at 125 g/ha ([8]; visual injury after approximately 10 d, 0 to 100 scale (0 no effect, 100 complete control), read-out: Plant response rating, Ragweed): 0%; pest or weed control at 125 g/ha ([9]; visual injury after approximately 10 d, 0 to 100 scale (0 no effect, 100 complete control), read-out: Plant response rating, Ryegrass, Italian): 0%; plant injury at 125 g/ha ([10]; visual injury after approximately 10 d, 0 to 100 scale (0 no effect, 100 complete control), read-out: Plant response rating, Wheat): 0%; pest or weed control at 250 g/ha [11, 26]: 60%; pest or weed control at 250 g/ha [12, 26]: 100%; pest or weed control at 250 g/ha (rice (Oryra sativa); [26]): 20%; pest or weed control at 250 g/ha [13, 26]: 0%
